Results reported in patent US7378532B2, “Fused pyrazolyl compound” (Yung Shin Pharmaceutical Ind. Co., Ltd., priority 2004, dated 2008).

Legend:
[1] = system: Human lung cancer cells, NCI-H226; assay: Inhibition of cancer cell growth (sulforhodamine B assay); format: cell-based; settings: human lung cancer cells NCI-H226, 48 hr incubation, eight concentrations, SRB stain, absorbance 515 nm
Experimental: Human lung cancer cells, NCI-H226, were placed in 96-well microtiter plates (5,000 cells/100 μl/well). The plates were incubated at 37° C. under 5% CO2 and 95% air and 100% relative humidity for 24 hr. Cells in one plate were fixed in situ with trichloroacetic acid (TCA) to measure the cell population.
Compound 1 was dissolved in dimethylsulfoxide (DMSO) to give a solution at 400-fold the desired final maximum test concentration and stored frozen. An aliquot of the frozen DMSO solution was thawed and diluted to twice the desired final maximum test concentration. Additional ½ log serial dilutions were made to provide a total of eight concentrations. 100 μl aliquots of these different dilutions were added to the microtiter wells, resulting in the required final drug concentrations. After Compound 1 was added, the plates were incubated at 37° C. under 5% CO2 and 95% air and 100% relative humidity for an additional 48 hr. The cells were fixed in situ by slow addition of 50 μl of cold 50% (w/v) TCA and incubated at 4° C. for 60 minutes. The supernatant was removed, and the plates were gently washed twice with water and air-dried. […] The bound stain was subsequently solubilized with 10 mM trizma base, and absorbance was measured by an automated plate reader at the wavelength of 515 nm.

SMILES	melting point [°C]	inhibition of growth of NCI-H226 [1]
Cc1cc2c(o1)c(-c1ccc(COC(=O)CCC(=O)O)o1)nn2Cc1ccccc1 [Compound 7, succinic acid mono-[5-(1-benzyl-5-methyl-1H-furo[3,2-C]pyrazol-3-yl)-furan-2-ylmethyl]ester]	126.3 to 129	–
O=C(O)CCC(=O)OCc1ccc(-c2nn(Cc3ccccc3)c3ccccc23)o1 [Compound 1, succinic acid mono-[5-(1-benzyl-1H-indazol-3-yl)-furan-2-ylmethyl]ester]	–	effectively inhibited growth of NCI—H226
O=C(O)CCC(=O)OCc1ccc(-c2nn(-c3ccc(Br)cc3)c3ccccc23)o1 [Compound 12, succinic acid mono-[5-(1-(4-bromo-phenyl)-1H-indazol-3-yl)-furan-2-ylmethyl]ester]	111 to 112.7	–
